Data reported in PubChem BioAssay AID1963981 (Molecular Pharmacology Branch, DTP, NCI, 2024).
Several values for one entry are separate records, joined by “and”; a condition that tells them apart may be missing. Equal values may be shown once. Blank lines part the entries; values can stand above or below the molecule they belong to.

System: 354836-022-R-J1-PDC multicell spheroid viability
Test: Anticancer human tumor 354836-022-R-J1-PDC patient-derived head and neck squamous cell carcinoma cell line growth inhibition [PI3K]
Conditions: for viability, T/C: stronger effect = lower value
Procedure, shortened: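 Tumor cells grown as multi-cell spheroids with HUVEC endothelial cells and MSC fibroblast-like stroma were treated with targeted agents combined with inavolisib, alpelisib, duvelisib or copanlisib. Doses fell in half-log steps from near clinical Cmax, else from 10 microM. Viability was measured.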

[1] = curve of first compound, second compound 0.00316 µM
[2] = curve of first compound, second compound 0.01 µM
[3] = curve of first compound, second compound 0.0316 µM
[4] = curve of first compound, second compound 0.1 µM
[5] = curve of first compound, second compound 0.316 µM
[6] = curve of first compound, second compound 1 µM
[7] = second compound 0.00316 µM, first compound 0.0316 µM
[8] = second compound 0.00316 µM, first compound 0.1 µM
[9] = second compound 0.00316 µM, first compound 0.316 µM
[10] = second compound 0.00316 µM, first compound 1 µM
[11] = second compound 0.00316 µM, first compound 3.16 µM
[12] = second compound 0.00316 µM, first compound 10 µM
[13] = second compound 0.01 µM, first compound 0.0316 µM
[14] = second compound 0.01 µM, first compound 0.1 µM
[15] = second compound 0.01 µM, first compound 0.316 µM
[16] = second compound 0.01 µM, first compound 1 µM
[17] = second compound 0.01 µM, first compound 3.16 µM
[18] = second compound 0.01 µM, first compound 10 µM
[19] = second compound 0.0316 µM, first compound 0.0316 µM
[20] = second compound 0.0316 µM, first compound 0.1 µM
[21] = second compound 0.0316 µM, first compound 0.316 µM
[22] = second compound 0.0316 µM, first compound 1 µM
[23] = second compound 0.0316 µM, first compound 3.16 µM
[24] = second compound 0.0316 µM, first compound 10 µM
[25] = second compound 0.1 µM, first compound 0.0316 µM
[26] = second compound 0.1 µM, first compound 0.1 µM
[27] = second compound 0.1 µM, first compound 0.316 µM
[28] = second compound 0.1 µM, first compound 1 µM
[29] = second compound 0.1 µM, first compound 3.16 µM
[30] = second compound 0.1 µM, first compound 10 µM
[31] = second compound 0.316 µM, first compound 0.0316 µM
[32] = second compound 0.316 µM, first compound 0.1 µM
[33] = second compound 0.316 µM, first compound 0.316 µM
[34] = second compound 0.316 µM, first compound 1 µM
[35] = second compound 0.316 µM, first compound 3.16 µM
[36] = second compound 0.316 µM, first compound 10 µM
[37] = second compound 1 µM, first compound 0.0316 µM
[38] = second compound 1 µM, first compound 0.1 µM
[39] = second compound 1 µM, first compound 0.316 µM
[40] = second compound 1 µM, first compound 1 µM
[41] = second compound 1 µM, first compound 3.16 µM
[42] = second compound 1 µM, first compound 10 µM
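Also: spheroids exposed to agents for seven days before the viability read.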

IC50 [1]: 5870 nM
IC50 [2]: 5890 nM
IC50 [3]: 4280 nM
IC50 [4]: < 31.6 nM
IC50 [5]: < 31.6 nM
IC50 [6]: < 31.6 nM
Structure (SMILES): CCCS(=O)(=O)Nc1ccc(F)c(C(=O)c2c[nH]c3ncc(-c4ccc(Cl)cc4)cc23)c1F + COc1c(OCCCN2CCOCC2)ccc2c3n(c(=NC(=O)c4cnc(N)nc4)nc12)CCN3
viability, T/C [7]: 99.6%
viability, T/C [8]: 96%
viability, T/C [9]: 97.8%
viability, T/C [10]: 108%
viability, T/C [11]: 86.4%
viability, T/C [12]: 18.6%
viability, T/C [13]: 85.1%
viability, T/C [14]: 93.7%
viability, T/C [15]: 93.7%
viability, T/C [16]: 91.4%
viability, T/C [17]: 86.4%
viability, T/C [18]: 19.1%
viability, T/C [19]: 72.8%
viability, T/C [20]: 86.7%
viability, T/C [21]: 86.3%
viability, T/C [22]: 78.6%
viability, T/C [23]: 64%
viability, T/C [24]: 11.1%
viability, T/C [25]: 48.2%
viability, T/C [26]: 43.8%
viability, T/C [27]: 47.1%
viability, T/C [28]: 56.4%
viability, T/C [29]: 40.7%
viability, T/C [30]: 7.62%
viability, T/C [31]: 12.5%
viability, T/C [32]: 13.2%
viability, T/C [33]: 12.3%
viability, T/C [34]: 13.6%
viability, T/C [35]: 12.4%
viability, T/C [36]: 1.45%
viability, T/C [37]: 1.35%
viability, T/C [38]: 1.58%
viability, T/C [39]: 2.26%
viability, T/C [40]: 1.47%
viability, T/C [41]: 1.69%
viability, T/C [42]: 0.99%

IC50 [1]: > 10000 nM
IC50 [2]: > 10000 nM
IC50 [3]: > 10000 nM
IC50 [4]: 73.6 nM
IC50 [5]: < 31.6 nM
IC50 [6]: < 31.6 nM
Structure (SMILES): Cn1nccc1Nc1nccc(-c2ccn(C(CO)c3ccc(Cl)c(F)c3)c(=O)c2)n1 (configuration not stated) + COc1c(OCCCN2CCOCC2)ccc2c3n(c(=NC(=O)c4cnc(N)nc4)nc12)CCN3
viability, T/C [7]: 97%
viability, T/C [8]: 98.1%
viability, T/C [9]: 94.2%
viability, T/C [10]: 89.3%
viability, T/C [11]: 92.1%
viability, T/C [12]: 82.7%
viability, T/C [13]: 88.5%
viability, T/C [14]: 99%
viability, T/C [15]: 88%
viability, T/C [16]: 94%
viability, T/C [17]: 91.9%
viability, T/C [18]: 97.6%
viability, T/C [19]: 83.4%
viability, T/C [20]: 69.7%
viability, T/C [21]: 76%
viability, T/C [22]: 84.7%
viability, T/C [23]: 87.2%
viability, T/C [24]: 64.2%
viability, T/C [25]: 49.1%
viability, T/C [26]: 49.2%
viability, T/C [27]: 46.9%
viability, T/C [28]: 49.6%
viability, T/C [29]: 44.8%
viability, T/C [30]: 32.2%
viability, T/C [31]: 11.8%
viability, T/C [32]: 11.1%
viability, T/C [33]: 11.1%
viability, T/C [34]: 11.4%
viability, T/C [35]: 6.95%
viability, T/C [36]: 2.26%
viability, T/C [37]: 1.52%
viability, T/C [38]: 1.16%
viability, T/C [39]: 1.02%
viability, T/C [40]: 1.12%
viability, T/C [41]: 1.77%
viability, T/C [42]: 0.33%

IC50 [1]: 656 nM
IC50 [2]: 642 nM
IC50 [3]: 342 nM
IC50 [4]: < 3.16 nM
IC50 [5]: < 3.16 nM
IC50 [6]: < 3.16 nM
Structure (SMILES): CCN1CCN(Cc2ccc(Nc3ncc(F)c(-c4cc(F)c5nc(C)n(C(C)C)c5c4)n3)nc2)CC1 + COc1c(OCCCN2CCOCC2)ccc2c3n(c(=NC(=O)c4cnc(N)nc4)nc12)CCN3
viability, T/C (second compound 0.00316 µM, first compound 0.00316 µM): 97.2%
viability, T/C (second compound 0.00316 µM, first compound 0.01 µM): 86.5%
viability, T/C [7]: 98.3%
viability, T/C [8]: 99.3%
viability, T/C [9]: 71.5%
viability, T/C [10]: 37.6%
viability, T/C (second compound 0.01 µM, first compound 0.00316 µM): 98%
viability, T/C (second compound 0.01 µM, first compound 0.01 µM): 101%
viability, T/C [13]: 96%
viability, T/C [14]: 81.1%
viability, T/C [15]: 83.5%
viability, T/C [16]: 31.7%
viability, T/C (second compound 0.0316 µM, first compound 0.00316 µM): 78.5%
viability, T/C (second compound 0.0316 µM, first compound 0.01 µM): 74.4%
viability, T/C [19]: 72.6%
viability, T/C [20]: 65.2%
viability, T/C [21]: 53.5%
viability, T/C [22]: 20.9%
viability, T/C (second compound 0.1 µM, first compound 0.00316 µM): 46.6%
viability, T/C (second compound 0.1 µM, first compound 0.01 µM): 41.8%
viability, T/C [25]: 46.5%
viability, T/C [26]: 36.6%
viability, T/C [27]: 30.4%
viability, T/C [28]: 6.41%
viability, T/C (second compound 0.316 µM, first compound 0.00316 µM): 11.8%
viability, T/C (second compound 0.316 µM, first compound 0.01 µM): 10.4%
viability, T/C [31]: 12.9%
viability, T/C [32]: 8.98%
viability, T/C [33]: 5.99%
viability, T/C [34]: 2.69%
viability, T/C (second compound 1 µM, first compound 0.00316 µM): 1.43%
viability, T/C (second compound 1 µM, first compound 0.01 µM): 1.38%
viability, T/C [37]: 1.41%
viability, T/C [38]: 1.78%
viability, T/C [39]: 1.38%
viability, T/C [40]: 1.22%

IC50 [3]: 100 nM
IC50 [4]: 168 nM
IC50 [5]: 112 nM
IC50 [6]: 162 nM
IC50 (curve of first compound, second compound 3.16 µM): 215 nM
IC50 (curve of first compound, second compound 10 µM): 145 nM
Structure (SMILES): Cn1ncc(Cl)c1-c1cc(C(=O)NC(CN)Cc2cccc(F)c2)sc1Cl (configuration not stated) + CC(Nc1ncnc2nc[nH]c12)c1cc2cccc(Cl)c2c(=O)n1-c1ccccc1
viability, T/C [19]: 74.6%
viability, T/C [20]: 48.9%
viability, T/C [21]: 31.8%
viability, T/C [22]: 15.1%
viability, T/C [23]: 5.4%
viability, T/C [24]: 1.88%
viability, T/C [25]: 70.7%
viability, T/C [26]: 61.4%
viability, T/C [27]: 36.3%
viability, T/C [28]: 17.7%
viability, T/C [29]: 5.21%
viability, T/C [30]: 1.62%
viability, T/C [31]: 74.1%
viability, T/C [32]: 52.5%
viability, T/C [33]: 30.3%
viability, T/C [34]: 17.8%
viability, T/C [35]: 5.75%
viability, T/C [36]: 1.5%
viability, T/C [37]: 65.6%
viability, T/C [38]: 67%
viability, T/C [39]: 29.6%
viability, T/C [40]: 19.3%
viability, T/C [41]: 5.53%
viability, T/C [42]: 1.8%
viability, T/C (second compound 3.16 µM, first compound 0.0316 µM): 75.6%
viability, T/C (second compound 3.16 µM, first compound 0.1 µM): 68.1%
viability, T/C (second compound 3.16 µM, first compound 0.316 µM): 39.5%
viability, T/C (second compound 3.16 µM, first compound 1 µM): 20.9%
viability, T/C (second compound 3.16 µM, first compound 3.16 µM): 7.18%
viability, T/C (second compound 3.16 µM, first compound 10 µM): 2.1%
viability, T/C (second compound 10 µM, first compound 0.0316 µM): 70.8%
viability, T/C (second compound 10 µM, first compound 0.1 µM): 59.7%
viability, T/C (second compound 10 µM, first compound 0.316 µM): 31.8%
viability, T/C (second compound 10 µM, first compound 1 µM): 18.9%
viability, T/C (second compound 10 µM, first compound 3.16 µM): 8.1%
viability, T/C (second compound 10 µM, first compound 10 µM): 2.22%

IC50 (curve of compound): > 10000 nM
Structure (SMILES): CC(Cn1ccc(-c2ccc(C#N)c(Cl)c2)n1)NC(=O)c1cc(C(C)O)[nH]n1 (configuration not stated)
viability, T/C (compound 0.0316 µM): 108% [middle of 4 runs]
viability, T/C (compound 0.1 µM): 95.5% [middle of 4 runs]
viability, T/C (compound 0.316 µM): 112% [middle of 4 runs]
viability, T/C (compound 1 µM): 93.7% [middle of 4 runs]
viability, T/C (compound 3.16 µM): 99.2% [middle of 4 runs]
viability, T/C (compound 10 µM): 77.8% [middle of 4 runs]

IC50 (curve of compound): 9.59 nM and 12 nM and 11.8 nM
Structure (SMILES): CC(C)n1nc(-c2ccc3oc(N)nc3c2)c2c(N)ncnc21
viability, T/C (compound 0.000316 µM): 92.8% [middle of 4 runs]
viability, T/C (compound 0.001 µM): 84.9% [middle of 4 runs]
viability, T/C (compound 0.00316 µM): 78.9% [middle of 4 runs]
viability, T/C (compound 0.01 µM): 52% [middle of 4 runs]
viability, T/C (compound 0.0316 µM): 28.9% [middle of 4 runs]
viability, T/C (compound 0.1 µM): 11.4% [middle of 4 runs]
